The test system of test [1] is CTCs from patients with castration-sensitive prostate cancer. Nature of the test: AR signaling phenotypes in CTCs from patients with castration-sensitive metastatic prostate cancer before and after ADT (HBCTC-Chip). To be noted: for Change of CTC AR signaling phenotype after ADT: treatment-naive castration-sensitive metastatic prostate cancer patients with detectable CTCs. In kind it is in vivo, human. As for the experimental part: (§1) Patients and Clinical Specimens Patients with metastatic prostate cancer receiving treatment at the Massachusetts General Hospital (MGH) were recruited according to an institutional review board (IRB) approved protocol. A total of 21 prostate cancer patients donated 10-20 mL of blood on one or more occasions for CTC analysis. A total of 21 male patients with no known diagnosis of cancer were recruited during routine visits to the MGH outpatient internal medicine clinic according to a separate IRB approved protocol. CTC capture using the ^HBCTC-Chip was performed as described (Stott S L, et al. Proc Natl Acad Sci USA 2010; 107: 18392-7), with anti-EpCAM mediated capture of cells, followed by combined staining with anti-PSA, anti-PSMA, and anti-CD45 antibodies (described in detail below).
HBCTC-Chip Blood Processing All specimens were collected into Vacutainer (Becton-Dickson) tubes containing the anticoagulant EDTA and were processed through the ^HBCTC-Chip within 6 hours of blood draw. Samples were run on the previously described microfluidic processing machine (Stott S L, et al. Proc Natl Acad Sci USA 2010; 107: 18392-7). Briefly, a 5 mL aliquot of blood was placed in an airtight conical tube on a rocker assembly, and 2-4 mL of blood were pneumatically driven through the chip at a flow rate of 1-1.5 mL/hour. […]
(§2) Immunofluorescence Staining and Automated Fluorescence Microscopy To establish and validate the immunofluorescence single cell AR signature, LNCaP cells were cultured in media containing 10% charcoal-stripped serum for 3 days followed by treatment with 1 nM R1881 or 10 μM bicalutamide for 24 hours. […] An automated upright fluorescence microscopy scanning system (BioView) fitted with a precision motorized stage and xenon arc lamp (Lumen 2000, Prior Scientific) was used to comprehensively image each CTC-chip under 10× magnification in seven z-planes. Due to inherent auto fluorescence of biological samples that can interfere with the specificity of stains in the green spectra, the negative control marker, CD45, was paired with the Alexa Fluor 488 secondary antibody. […]

Test [2] has as its system metastatic CRPC. Particulars: men with metastatic CRPC who have previously received chemotherapy; cited from earlier work.
The subject of test [3] is CTCs from patients with CRPC. Put plainly: AR signaling phenotypes in CTCs from CRPC patients before and after second line hormonal therapy (HBCTC-Chip). Format: in vivo, human. Particulars: for Effect of second line hormonal treatment on CTC numbers and AR phenotypes: CRPC patients, ketoconazole N=1, bicalutamide N=2, abiraterone acetate N=13. As for the experimental part:
as §1
HBCTC-Chip Blood Processing All specimens were collected into Vacutainer (Becton-Dickson) tubes containing the anticoagulant EDTA and were processed through the ^HBCTC-Chip within 6 hours of blood draw. Samples were run on the previously described microfluidic processing machine (Stott S L, et al. Proc Natl Acad Sci USA 2010; 107: 18392-7). Briefly, a 5 mL aliquot of blood was placed in an airtight conical tube on a rocker assembly, and 2-4 mL of blood were pneumatically driven through the chip at a flow rate of 1-1.5 mL/hour. Following processing, the ^HBCTC-Chip was flushed with 2.5 mL of PBS at 2.5 mL/hour to remove nonspecifically bound cells. Isolated CTCs were then subjected to immunofluorescence staining, as described below.
Immunofluorescence Staining and Automated Fluorescence Microscopy To establish and validate the immunofluorescence single cell AR signature, LNCaP cells were cultured in media containing 10% charcoal-stripped serum for 3 days followed by treatment with 1 nM R1881 or 10 μM bicalutamide for 24 hours. Once the assays were validated in cultured cells, they were applied to cells spiked into whole blood and isolated on the CTC-Chip, to healthy donor blood samples to establish the signal intensity threshold for detection, and ultimately on primary patient samples processed through the Chip. Cells captured on the ^HBCTC-chip were fixed with 4% formaldehyde and permeabilized with 1% NP-40 in PBS. Immunofluorescence staining was performed using a rabbit polyclonal anti-PSA antibody (DAKO), a mouse monoclonal IgG1 anti-PSMA antibody (J591; N. Bander), and a mouse monoclonal IgG2a anti-CD45 antibody (Abcam), followed by appropriately matched secondary antibodies conjugated with DyLight 649 (Jackson ImmunoResearch), Alexa Fluor 555 (Invitrogen), and Alexa Fluor 488 (Invitrogen). Nuclei were stained with DAPI. An automated upright fluorescence microscopy scanning system (BioView) fitted with a precision motorized stage and xenon arc lamp (Lumen 2000, Prior Scientific) was used to comprehensively image each CTC-chip under 10× magnification in seven z-planes. Due to inherent auto fluorescence of biological samples that can interfere with the specificity of stains in the green spectra, the negative control marker, CD45, was paired with the Alexa Fluor 488 secondary antibody. This choice reduced the sensitivity of the staining assay (potentially more false negatives), but lessened the risk of false positives through natural autofluorescence. Conversely, PSA, the highest affinity antibody tested (and subsequently strongest fluorescent signal) was placed in the Cy5 channel, where the quantum efficiency of traditional monochrome CCD sensors is reduced. To successfully achieve distinct, non-overlapping fluorescent signals in four colors while maximizing the fluorescent intensity output, modified Magnetron sputter-coated filter sets were selected for the Cy3 and Cy5 spectra (Chroma). Additional filter sets for the DAPI and FITC channel were used and exposure times were optimized. All samples were subsequently imaged at predetermined exposure times. […]

Test [4] has as its system LNCaP cells. Put plainly: Multiparameter single cell immunofluorescence assay for AR signaling (PSA/PSMA) in LNCaP cells. In kind it is cell-based, human. To be noted: androgen-starved LNCaP cells (3 days 10% charcoal-stripped serum) treated with 1 nM R1881.
Description: To achieve multiparameter single cell analysis of AR activity, an automated fluorescence microscopy scanning platform was adapted to distinctly and specifically measure four fluorescent emission spectra simultaneously. Secondary fluorophores and optical band pass filters were selected to avoid “cross-talk” between the multiple fluorescent signals that are closely located on the electromagnetic spectrum, while maximizing signal intensity. The disclosed assay for quantitative measurement of signal intensity profiles for cells stained with antibodies against PSA and PSMA was developed using a model cell system (LNCaP). […]
as §2

“Also recorded” adds a separate entry of the source.

As for `CCNC(=O)[C@@H]1CCCN1C(=O)[C@H](CCCNC(=N)N)NC(=O)[C@H](CC(C)C)NC(=O)[C@@H](CC(C)C)NC(=O)[C@H](Cc1ccc(O)cc1)NC(=O)[C@H](CO)NC(=O)[C@H](Cc1c[nH]c2ccccc12)NC(=O)[C@H](Cc1c[nH]cn1)NC(=O)[C@@H]1CCC(=O)N1` [leuprolide], the “Change of CTC AR signaling phenotype after ADT” value is recorded as “transformation of CTCs from the “AR-on” (PSA+/PSMA−) phenotype to the “AR-off” (PSA−/PSMA+) phenotype” in test [1] and “transformation of the majority of CTCs from the “AR-on” to the “AR-off” phenotype within one month” in test [1] (listed as ADT). For the same molecule, the “Presence of CTCs after initiation of ADT” value in test [1] (treatment-naive metastatic prostate cancer patients with detectable CTCs) is reported as “complete disappearance of CTCs by 3 months”.
For the molecule `CC(=O)O[C@H]1CC[C@@]2(C)C(=CC[C@@H]3[C@@H]2CC[C@]2(C)C(c4cccnc4)=CC[C@@H]32)C1` [abiraterone acetate], in test [2], the Overall survival result was “increases overall survival”. The “CRPC patients with a stable percentage of AR-on CTCs after therapy” value in test [3] (6 of 13 patients) was found to be 46%. Moreover, the “Effect of second line hormonal treatment on CTC numbers and AR phenotypes” value in test [3] was “varying effects on CTC numbers and AR phenotypes”. Further, the “Change in proportion of PSA+/PSMA− AR-on CTCs in an individual CRPC patient” value in test [3] (single patients, after initiation of therapy (FIG. 4A, FIG. 4C)) is on record as “a decrease in the proportion of PSA+/PSMA− “AR-on” CTCs; also recorded: Increase in the proportion of PSA+/PSMA− “AR-on” CTCs”. The “CRPC patients with ≥50% decline in the percentage of AR-on (PSA+/PSMA−) CTCs” value in test [3] (within 2-5 weeks of therapy, 4 of 13 patients) amounted to 31%. In addition, in test [3] (within the first 2-5 weeks of therapy, 3 of 13 patients), the “CRPC patients with ≥50% increase in the percentage of AR-on CTCs” value came to 23%.
With `C[C@]1(O)CC[C@H]2[C@@H]3CCC4=CC(=O)CCC4=C3C=C[C@@]21C` [R1881], the “AR signaling phenotype (PSA/PSMA signal intensity profile) over time” value in test [4] was “time-dependent progression from an initial “AR-off” (PSA−/PSMA+) to an intermediate “AR-mixed” (PSA+/PSMA+) phenotype, and finally to an “AR-on” (PSA+/PSMA−) pattern”.
Regarding `CC(=O)N1CCN(c2ccc(OCC3COC(Cn4ccnc4)(c4ccc(Cl)cc4Cl)O3)cc2)CC1` (centres unmarked) [ketoconazole], in test [3], the “Effect of second line hormonal treatment on CTC numbers and AR phenotypes” value is “varying effects on CTC numbers and AR phenotypes”.

The values are drawn from US11079383B2, “Diagnosis and monitoring treatment of prostate cancer” (THE GENERAL HOSPITAL CORPORATION, priority 2012, dated 2021).
